Data on one compound can be found in paper PMC9750858, “Rapid biosensor development using plant hormone receptors as reprogrammable scaffolds” (Nature Biotechnology, 2022).

Test [1] addresses T1, PYR1^DIAZI / HAB1 (Arabidopsis thaliana, UniProt O49686, A160V/E8G/F108Y/F159G/L87M/M158V/V81Y).
T1 construct: made in house
T1 sequence (O49686 with tags, fused parts or gaps E8G/V81Y/L87M/F108Y/M158V/F159G/A160V): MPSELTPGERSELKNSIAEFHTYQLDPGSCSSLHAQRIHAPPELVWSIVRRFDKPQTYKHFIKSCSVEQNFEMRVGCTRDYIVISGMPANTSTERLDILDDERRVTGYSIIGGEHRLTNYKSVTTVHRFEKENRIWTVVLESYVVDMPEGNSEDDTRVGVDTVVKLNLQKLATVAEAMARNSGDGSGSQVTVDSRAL
As to the kind of experiment: Ligand/receptor-mediated PP2C (HAB1 phosphatase) inhibition, PYR1^DIAZI. In kind it is biochemical.

The target of test [2] is T2, PYR1^PIRI / HAB1 (Arabidopsis thaliana, UniProt O49686, A160T/E130G/F159T/K59R/N119S/S122Q/S92M/V174A).
T2 construct: made in house
T2 sequence (O49686 with tags, fused parts or gaps K59R/S92M/N119S/S122Q/E130G/F159T/A160T/V174A): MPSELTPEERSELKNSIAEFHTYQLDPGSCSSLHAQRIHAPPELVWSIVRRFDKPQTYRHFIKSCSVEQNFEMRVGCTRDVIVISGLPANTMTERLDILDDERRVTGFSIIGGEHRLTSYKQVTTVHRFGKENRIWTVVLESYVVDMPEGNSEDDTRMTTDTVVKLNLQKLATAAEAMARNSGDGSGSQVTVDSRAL
Put plainly: Ligand/receptor-mediated PP2C (HAB1 phosphatase) inhibition, PYR1^PIRI. The note with it: HAB1 inhibition and Y2H assays. The class given is biochemical.

Test [3] has as its target T3, PYR1^DIAZI-M (Arabidopsis thaliana, UniProt O49686, A160V/E8G/F108Y/F159G/H60P/L87M/M158V/N90S/V81Y).
T3 construct: made in house
T3 sequence (O49686 with tags, fused parts or gaps E8G/H60P/V81Y/L87M/N90S/F108Y/M158V/F159G/A160V): T1 sequence (O49686 with tags, fused parts or gaps E8G/V81Y/L87M/F108Y/M158V/F159G/A160V) with H60P, N90S
Put plainly: ELISA-like plate assay, immobilized PYR1^DIAZI-M, biotinylated ΔN-HAB1^T+. In kind it is binding. The conditions noted are these: tested at 20 μM, ELISA-format.

Test [4] addresses T4, PYR1^DIAZI (Arabidopsis thaliana, UniProt O49686, A160V/E8G/F108Y/F159G/L87M/M158V/V81Y). As to the kind of experiment: Yeast transcriptional activation circuit Z4-PYR1/VP64-ΔN-HAB1, GFP reporter, PYR1^DIAZI. The conditions noted are these: panel of six chemically similar organophosphates.
Test [5] addresses T4, PYR1^DIAZI. Put plainly: Split NanoLuc luciferase complementation in yeast, NLuc^N-PYR1^DIAZI/NLuc^C-HAB1. In kind it is cell-based. The arrangement: >PYR1-DIAZI; expressed in transfected cells; host or cells: Saccharomyces cerevisiae BY4742.

Substitutions are numbered along the chain they refer to.

T4 sequence (Q9CAJ0 179-511, one chain of several): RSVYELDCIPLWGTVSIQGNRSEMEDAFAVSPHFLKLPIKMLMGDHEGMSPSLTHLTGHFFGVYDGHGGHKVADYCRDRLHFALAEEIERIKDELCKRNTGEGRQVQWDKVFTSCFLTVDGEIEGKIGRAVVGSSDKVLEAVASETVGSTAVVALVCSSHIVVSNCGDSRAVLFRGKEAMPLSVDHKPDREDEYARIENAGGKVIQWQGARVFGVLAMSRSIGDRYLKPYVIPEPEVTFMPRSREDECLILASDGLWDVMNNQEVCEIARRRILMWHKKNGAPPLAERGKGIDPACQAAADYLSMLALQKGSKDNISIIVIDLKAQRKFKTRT

For `CCOP(=S)(OCC)Oc1cc(C)nc(C(C)C)n1` [Diazinon, diazinon], the concentration giving a half-maximal response (EC50) was found to be 36 nM in test [1] and 24 nM in test [5]. Besides, the “ligand concentrations required for activation of PYR1^PIRI above background” value in test [2] was “high-nanomolar to low-micromolar”. Also, the “discrimination of on-target ligand from other organophosphates by PYR1^DIAZI” value in test [3] was “good discrimination”. In addition, in test [4], the “PYR1^DIAZI EC50 to on-target ligand relative to other organophosphates” value was “greater than tenfold lower than all other molecules profiled”.

The EC50 is the concentration that produces a half-maximal response. A higher EC50 goes with weaker potency.
